We go through one compound from US11022604B2, “Dock derived compound against laminin receptor (37 LR) and uses thereof” (Purdue Research Foundation, priority 2017, dated 2021).

The structures appear in SMILES notation.

The target of the experiment is T1, Peptide G (37 LR binding site for laminin, aa 161-180) (Homo sapiens, UniProt P08865).
T1 construct: purchased United Biosystems; host or cells: chemical synthesis
Briefly: Intrinsic tryptophan fluorescence binding assay, Peptide G. Particulars: 50 μM Peptide G, titration 0.1 to 100 μM; read-out: EC50, reduction of intrinsic tryptophan fluorescence. The method, then:
FIG. 4. Reduction of Tryptophan Fluorescence by C3. 50 μM peptide G or Scramble G was incubated with concentrations of C3 ranging from 100 nM to 100 μM. Intrinsic tryptophan fluorescence was quantified at 350 nm emission (270 nm excitation) and graphed as a function of C3 dose after subtracting baseline C3 fluorescence. GraphPad Prism was used to determine an ECso for tryptophan reduction as described in the method (n=3±SEM).
Cell Viability Screen. PC-3, Endo, TC2-Ras, SH-SY5Y, and LNCaP cells were seeded in 96-well plates at 1,500 cells per well using the Scepter cell counter (EMD Millipore). […] Cell viability was measured by using the cell counting kit-8 (CCK-8, Dojindo). […] CCK-8 absorbance was measured at 450 nm using a GloMax Multimode Reader (Promega). Readings were performed the day after seeding to normalize for variations in cell seeding and after 96 hours of compound treatment. After each reading, CCK-8 media was removed and replaced with media containing compound as described previously. […] As described previously, an initial baseline CCK-8 reading was performed at 24 hours post seeding to correct for variations in seeding density. First, 450 nm values for each well were subtracted from media only readings to correct for baseline absorbance. Then, the 96 hour readings were normalized to their respective 24 hour readings to control for seeding variation. […]

T1 sequence (P08865 161-180 limits assumed): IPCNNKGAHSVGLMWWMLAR

For `O=C(c1cc(F)cc2c1OCOC2)N1CCN(C2c3ccccc3-c3ccccc32)CC1` [Compound C3, [4-(9h-fluoren-9-yl)piperazino](6-fluoro-4h-1,3-benzodioxin-8-yl)methanone], the EC50 came to 16.1 µM.

What is called EC50 is the concentration that produces a half-maximal response.
